How the values were obtained:
Type in all cases: cell-based
[1] = biological target: T1, PPAR-α (Homo sapiens, UniProt Q07869); assay: PPAR-type receptor transactivation test (luciferase reporter), PPAR-α; settings: for % activation α / AC50: cotransfected HeLa cells treated 24 hours; for % activation α: luciferase activity, relative to reference molecule Reference 1; for Emax: HeLa, 24 h, read-out: % activation α; for AC50: luciferase, concentration giving 50% of the activity of reference molecule
T1 construct: expressed in transfected cells; host or cells: HeLa cells
T1 sequence (Q07869 1-468): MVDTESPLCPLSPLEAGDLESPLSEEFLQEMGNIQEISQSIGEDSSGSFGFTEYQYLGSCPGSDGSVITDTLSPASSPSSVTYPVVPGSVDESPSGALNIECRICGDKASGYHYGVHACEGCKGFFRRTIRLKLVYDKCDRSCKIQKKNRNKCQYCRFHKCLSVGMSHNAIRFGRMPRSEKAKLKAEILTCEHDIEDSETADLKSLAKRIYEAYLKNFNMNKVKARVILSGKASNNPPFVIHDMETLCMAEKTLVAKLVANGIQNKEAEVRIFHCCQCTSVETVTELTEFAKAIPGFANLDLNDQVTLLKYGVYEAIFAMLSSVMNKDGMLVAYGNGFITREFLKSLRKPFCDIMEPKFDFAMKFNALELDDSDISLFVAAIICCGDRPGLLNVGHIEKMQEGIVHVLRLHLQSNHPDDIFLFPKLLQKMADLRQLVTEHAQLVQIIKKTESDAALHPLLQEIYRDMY
Description: (§1) This activity is determined with the aid of a reporter enzyme (luciferase) for activation due to the compound via one of the PPAR receptors.
(§2) The biological tests carried out correspond to those described above. […] Thus, the activating power via PPAR-α, PPAR-γ or PPAR-δ of molecules may be evaluated with a transactivation test in which HeLa cells were cotransfected with an expression vector encoding these receptors and a reporter plasmid containing a PPRE response element cloned upstream of part of an SV40 virus promoter and of the luciferase gene. The cotransfected cells were treated for 24 hours with the molecules to be tested and the luciferase activity was determined by luminescence.

[2] = biological target: T2, PPAR-γ (Homo sapiens, UniProt P37231); assay: PPAR-type receptor transactivation test (luciferase reporter), PPAR-γ; settings: for % activation γ / AC50: cotransfected HeLa cells treated 24 hours; for % activation γ: luciferase activity, relative to reference molecule Reference 2; for Emax: HeLa, 24 h, read-out: % activation γ; for AC50: luciferase, concentration giving 50% of the activity of reference molecule
T2 construct: expressed in transfected cells; host or cells: HeLa cells
T2 sequence (P37231 1-505): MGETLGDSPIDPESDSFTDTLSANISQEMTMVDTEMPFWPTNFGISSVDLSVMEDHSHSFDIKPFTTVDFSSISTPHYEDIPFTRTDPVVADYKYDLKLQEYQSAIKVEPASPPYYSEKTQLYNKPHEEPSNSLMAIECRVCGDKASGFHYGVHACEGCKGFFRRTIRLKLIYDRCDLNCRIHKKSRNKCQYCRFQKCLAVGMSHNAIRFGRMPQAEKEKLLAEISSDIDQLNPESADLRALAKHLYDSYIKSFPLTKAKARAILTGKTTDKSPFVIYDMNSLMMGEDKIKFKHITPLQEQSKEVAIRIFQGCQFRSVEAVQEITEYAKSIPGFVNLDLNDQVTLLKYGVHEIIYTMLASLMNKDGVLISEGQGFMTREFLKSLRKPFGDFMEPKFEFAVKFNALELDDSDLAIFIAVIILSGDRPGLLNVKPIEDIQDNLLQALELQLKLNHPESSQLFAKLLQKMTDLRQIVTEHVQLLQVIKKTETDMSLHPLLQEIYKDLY
Description: as §1, §2

[3] = biological target: T3, PPAR-β (Homo sapiens, UniProt Q03181); assay: PPAR-type receptor transactivation test (luciferase reporter), PPAR-β; settings: for % activation β / AC50: cotransfected HeLa cells treated 24 hours; for % activation β: luciferase activity, relative to reference molecule Reference 2; for Emax: HeLa, 24 h, read-out: % activation β; for AC50: luciferase, concentration giving 50% of the activity of reference molecule
T3 construct: expressed in transfected cells; host or cells: HeLa cells
T3 sequence (Q03181 1-441): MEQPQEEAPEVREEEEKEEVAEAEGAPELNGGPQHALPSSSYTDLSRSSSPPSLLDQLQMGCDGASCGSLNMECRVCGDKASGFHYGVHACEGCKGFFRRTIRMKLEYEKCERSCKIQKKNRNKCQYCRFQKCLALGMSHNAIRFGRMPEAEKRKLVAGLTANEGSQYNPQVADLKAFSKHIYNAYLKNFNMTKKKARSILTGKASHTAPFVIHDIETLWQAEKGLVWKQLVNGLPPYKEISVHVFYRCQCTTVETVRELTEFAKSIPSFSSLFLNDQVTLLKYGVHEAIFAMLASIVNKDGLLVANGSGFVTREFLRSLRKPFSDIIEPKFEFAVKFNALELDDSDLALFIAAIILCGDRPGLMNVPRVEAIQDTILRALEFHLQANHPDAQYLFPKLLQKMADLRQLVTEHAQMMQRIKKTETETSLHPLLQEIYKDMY
Description: as §1, §2

Compound	% activation α [1] [%]	% activation γ [2] [%]	% activation β [3] [%]	Emax [1] [%]	Emax [2] [%]	Emax [3] [%]	AC50 [1] [nM]	AC50 [2] [nM]	AC50 [3] [nM]
CCCCOC(c1ccc2c(c1)C(C)(C)CCC2(C)C)c1ccc2cc(C(=O)O)ccc2c1 (stereo not shown) [Comparative Example 1, 6-[butoxy(5,5,8,8-tetramethyl-5,6,7,8-tetrahydronaphthalen-2-yl)methyl]naphthalene-2-carboxylic acid]				0	7	28			
COc1ccc(C(=O)c2ccc3cc(C(=O)O)ccc3c2)cc1-c1ccccc1 [Comparative Example 4, 6-(6-methoxybiphenyl-3-carbonyl)napthalene-2-carboxylic acid]	6	2	23						
COc1ccc(C(O)c2ccc(C(=O)O)cc2)cc1C12CC3CC(CC(C3)C1)C2 (stereo not shown) [Comparative Example 6, 4-[(3-adamantan-1-yl-4-methoxyphenyl)hydroxymethyl]benzoic acid]				4	7	16			
CC1(C)CCc2cc(C(=O)c3ccc4cc(C(=O)O)ccc4c3)ccc2O1 [Compound 2, 6-(2,2-dimethylchroman-6-carbonyl)naphthalene-2-carboxylic acid]				48	190	280	900	1500	700
CC(C)(C)c1ccc(C(=O)c2ccc3cc(C(=O)O)ccc3c2)cc1 [Compound 3, 6-(4-tert-butylbenzoyl)naphthalene-2-carboxylic acid]				63	148	277	1000	360	300

The remaining lines, values ahead:

% activation α [1] [%]	% activation γ [2] [%]	% activation β [3] [%]	Emax [1] [%]	Emax [2] [%]	Emax [3] [%]	AC50 [1] [nM]	AC50 [2] [nM]	AC50 [3] [nM]	Compound
6	3	19							6-(2,4-diisopropylbenzoyl)napthalene-2-carboxylic acid [compound 3]
			40	174	291	2000	800	500	O=C(O)c1ccc2cc(C(=O)c3ccc4c(c3)CCCC4)ccc2c1 [Compound 4, 6-(5,6,7,8-tetrahydronaphthalene-2-carbonyl)naphthalene-2-carboxylic acid]
			16	36	92				CC1(C)CCOc2ccc(C(=O)c3ccc4cc(C(=O)O)ccc4c3)cc21 [Compound 5, 6-(4,4-dimethylchroman-6-carbonyl)naphthalene-2-carboxylic acid]
100									Cc1cccc(Nc2cc(Cl)nc(SCC(=O)O)n2)c1C [Reference 1, [4-chloro-6-(2,3-dimethylphenylamino)pyrimidin-2-ylsulphanyl]acetic acid]
			6	3	8				COc1cc(C(=O)c2ccc3cc(C(=O)O)ccc3c2)ccc1C12CC3CC(CC(C3)C1)C2 [compound 5, 6-(4-adamantan-1-yl-3-methoxybenzoyl)naphthalene-2-carboxylic acid]
			0	0	23				COc1ccc(C(=O)c2ccc(C(=O)O)cc2)cc1C12CC3CC(CC(C3)C1)C2 [compound 7, 4-(3-adamantan-1-yl-4-methoxybenzoyl)benzoic acid]
1	13	1							C-(6-carboxynaphthalen-2-yl)-C-(5,5,8,8-tetramethyl-5,6,7,8-tetrahydronaphthalen-2-yl)methylammonium [compound 2]

From US20020049250A1, “PPAR receptor activator compounds for treating cutaneous disorders/afflictions” (priority 1999, published 2002)
